Assay results published in ChEMBL document CHEMBL3352817, “Syntheses of coumarin-tacrine hybrids as dual-site acetylcholinesterase inhibitors and their activity against butylcholinesterase, Aβ aggregation, and β-secretase” (Bioorg Med Chem, 2014).

Columns and labels:
[1] = target: Amyloid-beta precursor protein (Homo sapiens, UniProt P05067)
Description: Inhibition of self mediated amyloid beta (1 to 42) aggregation (unknown origin) after 10 hrs by ThT-based fluorescence assay

Beta-secretase 1 = Beta-secretase 1 (Homo sapiens, UniProt P56817)
Acetylcholinesterase = Acetylcholinesterase (Homo sapiens, UniProt P22303)
Description: Inhibition of human AChE assessed as acetylthiocholine hydrolysis

Cholinesterase = Cholinesterase (Homo sapiens, UniProt P06276)
Sequence of Cholinesterase (P06276 whole entry): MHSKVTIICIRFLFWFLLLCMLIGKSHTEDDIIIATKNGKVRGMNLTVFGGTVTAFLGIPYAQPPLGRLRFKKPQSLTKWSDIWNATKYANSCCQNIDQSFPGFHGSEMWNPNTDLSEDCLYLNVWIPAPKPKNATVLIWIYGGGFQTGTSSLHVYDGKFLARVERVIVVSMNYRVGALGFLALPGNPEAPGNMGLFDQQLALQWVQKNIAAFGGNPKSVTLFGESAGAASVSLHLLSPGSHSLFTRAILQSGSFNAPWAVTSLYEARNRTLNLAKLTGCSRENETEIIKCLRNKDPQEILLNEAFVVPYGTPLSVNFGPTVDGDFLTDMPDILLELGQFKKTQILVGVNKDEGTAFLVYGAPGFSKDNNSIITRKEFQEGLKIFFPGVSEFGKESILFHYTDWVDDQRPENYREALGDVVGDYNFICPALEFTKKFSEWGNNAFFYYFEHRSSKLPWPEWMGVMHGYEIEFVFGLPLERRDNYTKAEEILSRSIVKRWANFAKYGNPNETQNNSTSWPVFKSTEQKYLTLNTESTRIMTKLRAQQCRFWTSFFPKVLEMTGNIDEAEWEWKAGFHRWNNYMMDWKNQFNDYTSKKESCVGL
Description: Inhibition of human BChE assessed as acetylthiocholine hydrolysis

Sequence of Acetylcholinesterase (P22303 whole entry): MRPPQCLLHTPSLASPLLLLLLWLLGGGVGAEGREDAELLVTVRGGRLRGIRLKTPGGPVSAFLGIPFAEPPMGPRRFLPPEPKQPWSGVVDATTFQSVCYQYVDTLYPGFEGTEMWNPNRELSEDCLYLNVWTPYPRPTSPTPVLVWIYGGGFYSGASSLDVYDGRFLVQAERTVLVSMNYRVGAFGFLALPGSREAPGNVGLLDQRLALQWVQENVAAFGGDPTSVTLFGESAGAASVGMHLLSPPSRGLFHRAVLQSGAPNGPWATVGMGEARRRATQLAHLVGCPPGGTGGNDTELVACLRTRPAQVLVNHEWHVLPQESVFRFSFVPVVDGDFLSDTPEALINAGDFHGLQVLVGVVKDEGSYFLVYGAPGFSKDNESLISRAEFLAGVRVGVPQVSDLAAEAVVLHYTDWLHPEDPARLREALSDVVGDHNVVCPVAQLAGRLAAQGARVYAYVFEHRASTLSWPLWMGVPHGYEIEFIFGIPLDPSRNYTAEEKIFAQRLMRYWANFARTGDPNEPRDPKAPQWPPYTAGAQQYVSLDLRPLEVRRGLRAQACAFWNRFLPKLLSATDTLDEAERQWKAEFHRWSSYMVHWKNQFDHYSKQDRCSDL
Sequence of Amyloid-beta precursor protein (P05067 whole entry): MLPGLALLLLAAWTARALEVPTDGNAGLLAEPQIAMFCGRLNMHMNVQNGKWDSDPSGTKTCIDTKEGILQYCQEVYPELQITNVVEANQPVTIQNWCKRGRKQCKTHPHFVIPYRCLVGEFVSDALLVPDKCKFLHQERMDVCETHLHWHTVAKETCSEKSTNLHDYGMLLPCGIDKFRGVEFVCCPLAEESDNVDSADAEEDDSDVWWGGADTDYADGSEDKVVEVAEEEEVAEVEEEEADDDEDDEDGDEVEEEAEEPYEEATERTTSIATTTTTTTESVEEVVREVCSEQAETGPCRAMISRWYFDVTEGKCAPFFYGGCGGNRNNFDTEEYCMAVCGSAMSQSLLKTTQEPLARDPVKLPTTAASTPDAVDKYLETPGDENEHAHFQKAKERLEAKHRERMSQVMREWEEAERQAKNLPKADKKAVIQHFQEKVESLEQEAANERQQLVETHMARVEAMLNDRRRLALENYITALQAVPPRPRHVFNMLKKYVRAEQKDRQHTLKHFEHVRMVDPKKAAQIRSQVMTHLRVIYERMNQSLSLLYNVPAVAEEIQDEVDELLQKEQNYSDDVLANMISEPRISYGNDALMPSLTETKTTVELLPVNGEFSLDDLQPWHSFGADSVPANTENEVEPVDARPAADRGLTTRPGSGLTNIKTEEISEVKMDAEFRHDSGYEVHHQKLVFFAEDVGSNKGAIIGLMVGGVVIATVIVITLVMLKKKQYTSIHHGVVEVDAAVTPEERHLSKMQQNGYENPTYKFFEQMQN
Sequence of Beta-secretase 1 (P56817 whole entry): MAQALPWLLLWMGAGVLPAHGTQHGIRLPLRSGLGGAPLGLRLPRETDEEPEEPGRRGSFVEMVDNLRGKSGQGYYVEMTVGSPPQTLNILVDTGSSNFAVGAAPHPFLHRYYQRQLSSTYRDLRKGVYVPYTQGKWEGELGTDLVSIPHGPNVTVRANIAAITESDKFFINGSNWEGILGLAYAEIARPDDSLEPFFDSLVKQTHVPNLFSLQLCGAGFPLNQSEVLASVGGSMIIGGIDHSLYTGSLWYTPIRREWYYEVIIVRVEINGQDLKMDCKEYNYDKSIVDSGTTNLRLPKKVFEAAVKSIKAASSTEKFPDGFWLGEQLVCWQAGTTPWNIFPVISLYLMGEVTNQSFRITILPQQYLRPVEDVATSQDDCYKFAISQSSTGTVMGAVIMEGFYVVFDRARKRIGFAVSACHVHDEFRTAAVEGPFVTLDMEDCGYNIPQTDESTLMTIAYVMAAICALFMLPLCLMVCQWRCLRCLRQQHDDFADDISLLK

SMILES	IC50 [1]	IC50 (Beta-secretase 1)	Ki (Acetylcholinesterase)	Ki (Cholinesterase)
O=C(NCCCCCNc1c2c(nc3ccccc13)CCCC2)c1cc2ccccc2oc1=O	> 100 µM	40.1 µM	34.4 nM	31.7 nM
COc1ccc2cc(C(=O)NCCCCCNc3c4c(nc5ccccc35)CCCC4)c(=O)oc2c1	–	–	44.3 nM	29.8 nM
COc1ccc2oc(=O)c(C(=O)NCCCCCNc3c4c(nc5ccccc35)CCCC4)cc2c1	–	–	39.4 nM	34 nM
Cc1ccc2oc(=O)c(C(=O)NCCCCCNc3c4c(nc5ccccc35)CCCC4)cc2c1	–	–	35.8 nM	32.4 nM
COc1cc2cc(C(=O)NCCCCCNc3c4c(nc5ccccc35)CCCC4)c(=O)oc2cc1OC	–	–	70 nM	8.1 nM
O=C(NCCCCCNc1c2c(nc3ccccc13)CCCC2)c1cc2cc(OC(F)(F)F)ccc2oc1=O	–	–	76.1 nM	32.5 nM
O=C(NCCCCCCNc1c2c(nc3ccccc13)CCCC2)c1cc2ccccc2oc1=O	> 100 µM	17.2 µM	16.7 nM	16.1 nM
COc1ccc2cc(C(=O)NCCCCCCNc3c4c(nc5ccccc35)CCCC4)c(=O)oc2c1	–	–	30.9 nM	20.2 nM
COc1ccc2oc(=O)c(C(=O)NCCCCCCNc3c4c(nc5ccccc35)CCCC4)cc2c1	–	–	24.3 nM	23.7 nM
Cc1ccc2oc(=O)c(C(=O)NCCCCCCNc3c4c(nc5ccccc35)CCCC4)cc2c1	5 µM	> 100 µM	30.1 nM	23.2 nM
COc1cc2cc(C(=O)NCCCCCCNc3c4c(nc5ccccc35)CCCC4)c(=O)oc2cc1OC	–	–	56.1 nM	31.2 nM
O=C(NCCCCCCNc1c2c(nc3ccccc13)CCCC2)c1cc2cc(OC(F)(F)F)ccc2oc1=O	24.2 µM	22.6 µM	59.6 nM	17.5 nM
O=C(NCCCCCCCNc1c2c(nc3ccccc13)CCCC2)c1cc2ccccc2oc1=O	–	–	42.2 nM	20 nM
COc1ccc2cc(C(=O)NCCCCCCCNc3c4c(nc5ccccc35)CCCC4)c(=O)oc2c1	–	–	55.2 nM	35 nM
COc1ccc2oc(=O)c(C(=O)NCCCCCCCNc3c4c(nc5ccccc35)CCCC4)cc2c1	13.4 µM	20.2 µM	50.7 nM	34.5 nM
Cc1ccc2oc(=O)c(C(=O)NCCCCCCCNc3c4c(nc5ccccc35)CCCC4)cc2c1	6.1 µM	42.8 µM	66.1 nM	50.9 nM
COc1cc2cc(C(=O)NCCCCCCCNc3c4c(nc5ccccc35)CCCC4)c(=O)oc2cc1OC	–	–	91.1 nM	37.5 nM
O=C(NCCCCCCCNc1c2c(nc3ccccc13)CCCC2)c1cc2cc(OC(F)(F)F)ccc2oc1=O	–	–	78.2 nM	40 nM
